Results published in US20240398813A1, “PHARMACEUTICAL COMPOSITION FOR PREVENTING OR TREATING OVERACTIVE BLADDER” (GWANGJU INSTITUTE OF SCIENCE AND TECHNOLOGY, priority 2021, published 2024).

Experiments:
[1] = biological target: T1, hyperactive mutant BKCa channels (hSlo G803D/N806K) stably expressed in AD 293 cells (Homo sapiens, UniProt Q12791, G856D/N859K); experiment: Cell-based fluorescence assay (FluxOR Potassium Ion Channel Assay) of BKCa channel activation; settings: compounds at 5 μM; n=3; vehicle 0.26
T1 construct: expressed in transfected cells

[2] = test system: Spontaneously hypertensive rats (SHR); experiment: In vivo model of OAB: urination in spontaneously hypertensive rats after oral administration; parameters: species or system rat; settings: 3 hours
Description: Male rats with body weights of 300 to 350 g were deprived of food and water overnight before the experiment, and then were randomly divided into a drug administration group and a control group. All animals were provided free access to water for 2 hours, and then 10 mL/kg of vehicle solution [DMSO:PEG400:distilled water=5:40:55 (v/v)] as a test substance were orally administered. After oral administration of the test substance, the rats were placed in a metabolic cage and the number of urinations and urine volume were measured for 3 hours.
The in vivo treatment effects of the compounds for […] were investigated in spontaneously hypertensive rats (SHR) with OAB symptoms after oral administration. Wistar-Kyoto rats (WKY) were used as the healthy animal control, and urination frequency was increased more than 2.8 times in SHR compared to WKY. Compound 208 reduced the urination frequency in SHR (50 mg/kg) by 33%, which is quite close to the urination frequency of the normal group (see FIG. 18).

[3] = biological target: T2, BKCa channels co-expressed with the β4 subunits (rSlo α + KCNMB4) (Rattus norvegicus, UniProt Q62976); experiment: Macroscopic current recording, BKCa channels co-expressed with β4 subunits in Xenopus oocytes; format: cell-based; settings: 10 μM
T2 construct: expressed in transfected cells; host or cells: Xenopus laevis oocytes, cRNA alpha:beta 1:12
Excerpt: (§1) The complete coding sequence (CDS) of each of rat KCNMA (rSlo α) (GenBank AF135265.1), KCNMB1 (rSlo 01) (GenBank FJ154955.1) and KCNMB4 (rSlo β4) (GenBank AY028605) was subcloned into pNBC2.0 or pNBC2.0. These vectors were designed to be expressed in Xenopus oocytes (Ha, T. S., Lim, H. H., Lee, G. E., Kim, Y. C., & Park, C. S. (2006). Electrophysiological characterization of benzofuroindole-induced potentiation of large-conductance Ca2+-activated K+ channels. Mol Pharmacol, 69(3), 1007-1014). The plasmid was linearized by NotI and complementary RNA (cRNA) was synthesized using the Ambion T7 mMESSAGE mMACHINE kit (Invitrogen, Carlsbad, CA, USA) according to the manufacturer's instructions. Xenopus laevis (KXRCR000001) was obtained from the Korea Xenopus Resource Center for Research (Chuncheon-si, Gangwon-do, Korea). Stage V-VI oocytes were surgically extracted from the ovarian lobes of X. laevis. A follicular cell layer was removed by culturing in Ca^2+-free oocyte Ringer's medium (86 mM NaCl, 1.5 mM KCl, 2 mM MgCl2 and 10 mM HEPES, pH 7.6) containing collagenase for 1.5 hours at room temperature. Oocytes without follicular layer were washed with ND-96 medium (96 mM NaCl, 2 mM KCl, 1.8 mM CaCl2), 1 mM MgCl2, 5 mM HEPES, […] gentamicin, pH 7.6). The prepared oocytes were stabilized overnight at 18° C. cRNA was injected into each oocyte (50 ng per oocyte) using a microdispenser (Drummond Scientific, Broomall, PA, USA). For co-expression of the β subunits, cRNA was mixed at a molar ratio of 1:12 (α:β) to induce sufficient co-assembly of the R subunits. After injection of cRNA, the oocytes were cultured in ND-96 medium for 1-3 days at 18° C. Before recording macroscopic currents, vitelline membranes of the oocytes were completely removed using fine forceps.
(§2) All macroscopic current recordings in the BKCa channels were performed using the gigaohm-seal patch-clamp method in an outside-out configuration (Ha et al., 2006). A patch pipette was made of borosilicate glass (WPI, Sarasota, FL, USA) and fire-polished by a resistance of 3-5 MQ. […]

[4] = biological target: T3, BKCa channels co-expressed with the β1 subunit (rSlo α + KCNMB1) (Rattus norvegicus, UniProt Q62976); experiment: Macroscopic current recording, BKCa channels co-expressed with β1 subunits in Xenopus oocytes; format: cell-based; settings: 10 μM
T3 construct: expressed in transfected cells; host or cells: Xenopus laevis oocytes, cRNA alpha:beta 1:12
Excerpt: as §1, §2

T3 sequence (Q62976 whole entry): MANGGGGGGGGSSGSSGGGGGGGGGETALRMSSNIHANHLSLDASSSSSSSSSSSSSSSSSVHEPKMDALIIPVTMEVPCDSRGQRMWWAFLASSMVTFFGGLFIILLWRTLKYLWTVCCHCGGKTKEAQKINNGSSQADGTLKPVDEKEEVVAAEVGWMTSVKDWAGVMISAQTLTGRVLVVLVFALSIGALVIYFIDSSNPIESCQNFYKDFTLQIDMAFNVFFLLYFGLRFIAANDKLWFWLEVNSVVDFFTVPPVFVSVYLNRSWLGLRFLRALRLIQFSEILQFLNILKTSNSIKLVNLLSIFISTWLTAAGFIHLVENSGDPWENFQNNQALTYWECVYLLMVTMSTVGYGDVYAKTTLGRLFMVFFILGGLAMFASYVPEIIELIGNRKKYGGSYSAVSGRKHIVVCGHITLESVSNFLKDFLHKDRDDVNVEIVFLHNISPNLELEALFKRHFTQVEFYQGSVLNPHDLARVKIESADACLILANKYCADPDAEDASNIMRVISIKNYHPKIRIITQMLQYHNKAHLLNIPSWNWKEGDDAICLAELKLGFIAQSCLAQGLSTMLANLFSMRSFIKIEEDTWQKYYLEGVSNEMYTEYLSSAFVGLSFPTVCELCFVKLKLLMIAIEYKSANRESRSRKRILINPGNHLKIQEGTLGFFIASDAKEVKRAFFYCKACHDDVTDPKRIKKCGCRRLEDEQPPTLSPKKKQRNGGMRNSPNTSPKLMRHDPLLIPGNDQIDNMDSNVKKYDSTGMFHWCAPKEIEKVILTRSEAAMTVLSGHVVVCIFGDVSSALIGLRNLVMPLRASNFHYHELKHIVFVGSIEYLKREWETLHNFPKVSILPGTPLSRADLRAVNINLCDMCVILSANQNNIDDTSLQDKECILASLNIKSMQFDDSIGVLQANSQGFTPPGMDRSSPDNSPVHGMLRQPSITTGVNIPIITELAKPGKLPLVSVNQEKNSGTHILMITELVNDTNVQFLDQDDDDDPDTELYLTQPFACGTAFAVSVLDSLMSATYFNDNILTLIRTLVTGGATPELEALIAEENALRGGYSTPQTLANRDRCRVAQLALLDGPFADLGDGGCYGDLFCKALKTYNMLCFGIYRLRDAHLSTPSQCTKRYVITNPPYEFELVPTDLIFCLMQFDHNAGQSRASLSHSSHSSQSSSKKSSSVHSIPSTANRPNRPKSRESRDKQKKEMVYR
T3 sequence (P97678 whole entry partner): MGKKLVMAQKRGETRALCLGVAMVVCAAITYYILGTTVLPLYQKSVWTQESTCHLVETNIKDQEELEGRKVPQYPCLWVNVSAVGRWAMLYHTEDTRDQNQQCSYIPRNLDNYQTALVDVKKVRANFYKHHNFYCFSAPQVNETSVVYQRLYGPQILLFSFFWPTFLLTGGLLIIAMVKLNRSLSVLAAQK
T2 sequence (Q62976 whole entry): as the sequence (Q62976 whole entry) above
T2 sequence (Q9ESK8 whole entry partner): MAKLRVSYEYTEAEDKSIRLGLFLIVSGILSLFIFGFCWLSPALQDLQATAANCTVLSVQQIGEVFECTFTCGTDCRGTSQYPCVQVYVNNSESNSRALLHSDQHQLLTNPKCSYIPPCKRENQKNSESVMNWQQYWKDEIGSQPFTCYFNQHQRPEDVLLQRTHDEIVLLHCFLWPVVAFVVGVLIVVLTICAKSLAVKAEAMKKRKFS
T1 sequence (Q12791 whole entry G856D/N859K): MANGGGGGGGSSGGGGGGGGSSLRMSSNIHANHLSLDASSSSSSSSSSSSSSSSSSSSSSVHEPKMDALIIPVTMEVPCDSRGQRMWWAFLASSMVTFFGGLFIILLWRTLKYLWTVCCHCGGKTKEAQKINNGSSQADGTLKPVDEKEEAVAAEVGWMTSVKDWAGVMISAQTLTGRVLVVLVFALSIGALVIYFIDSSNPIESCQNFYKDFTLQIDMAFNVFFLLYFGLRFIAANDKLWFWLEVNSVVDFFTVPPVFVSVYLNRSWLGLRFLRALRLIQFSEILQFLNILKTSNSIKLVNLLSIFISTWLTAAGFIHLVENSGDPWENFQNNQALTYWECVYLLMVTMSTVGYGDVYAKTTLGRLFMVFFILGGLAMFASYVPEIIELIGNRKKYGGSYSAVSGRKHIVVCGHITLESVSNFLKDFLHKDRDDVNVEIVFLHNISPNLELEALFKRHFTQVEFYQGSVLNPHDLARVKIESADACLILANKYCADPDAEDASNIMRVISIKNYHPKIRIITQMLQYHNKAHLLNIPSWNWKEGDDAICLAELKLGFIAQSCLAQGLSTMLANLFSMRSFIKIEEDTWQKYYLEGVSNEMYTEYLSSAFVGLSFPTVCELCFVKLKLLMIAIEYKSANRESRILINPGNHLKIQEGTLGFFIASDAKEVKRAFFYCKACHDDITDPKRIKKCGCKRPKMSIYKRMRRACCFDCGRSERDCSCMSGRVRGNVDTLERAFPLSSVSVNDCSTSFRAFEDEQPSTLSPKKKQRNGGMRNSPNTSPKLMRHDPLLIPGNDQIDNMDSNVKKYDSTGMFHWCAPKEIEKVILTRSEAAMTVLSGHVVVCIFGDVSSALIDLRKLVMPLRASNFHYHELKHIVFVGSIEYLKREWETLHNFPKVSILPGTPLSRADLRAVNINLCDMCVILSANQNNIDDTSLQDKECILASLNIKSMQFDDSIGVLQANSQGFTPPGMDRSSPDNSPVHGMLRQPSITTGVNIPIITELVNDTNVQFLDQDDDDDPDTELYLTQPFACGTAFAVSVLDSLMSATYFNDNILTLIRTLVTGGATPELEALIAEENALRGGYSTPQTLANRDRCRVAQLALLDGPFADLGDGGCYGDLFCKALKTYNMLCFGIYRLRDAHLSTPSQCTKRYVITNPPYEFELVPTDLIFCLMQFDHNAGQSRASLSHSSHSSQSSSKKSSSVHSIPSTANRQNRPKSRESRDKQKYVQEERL

SMILES: Cc1cccc(NC(=O)c2sc(=S)n3c2[nH]c(=O)c2cc(Br)ccc23)c1 [TTQC-1, 7-bromo-5-oxo-1-thioxo-N-(m-tolyl)-4,5-dihydro-1H-thiazolo[3,4-a]quinazoline-3-carboxamide]
- Activity (ΔRFU normalized by activities of LDD175) [1]: 1.06
- number of urinary events ([2]; 10 mg/kg oral, SHR vehicle 8.2): 3.0
- total urine volume ([2]; oral): significantly reduced
- effect on τ activation [3]: did not significantly affect
- increase of τ deactivation ([3]; at 170 mV): 3.7 times
- shift of G-V curve to the left ([3]; β4 co-expressed): 7.12±0.65 mV
- effect on τ activation [4]: changed the τ activation only at 190 mV
- increase of τ deactivation ([4]; at 180 mV): 4.6 times
- shift of G-V curve to the left ([4]; β1 co-expressed): 23.0±2.67 mV
